Assay [1] addresses T1, G protein-coupled receptor kinase 3 (Homo sapiens) (UniProt P35626).
T1 sequence (whole entry): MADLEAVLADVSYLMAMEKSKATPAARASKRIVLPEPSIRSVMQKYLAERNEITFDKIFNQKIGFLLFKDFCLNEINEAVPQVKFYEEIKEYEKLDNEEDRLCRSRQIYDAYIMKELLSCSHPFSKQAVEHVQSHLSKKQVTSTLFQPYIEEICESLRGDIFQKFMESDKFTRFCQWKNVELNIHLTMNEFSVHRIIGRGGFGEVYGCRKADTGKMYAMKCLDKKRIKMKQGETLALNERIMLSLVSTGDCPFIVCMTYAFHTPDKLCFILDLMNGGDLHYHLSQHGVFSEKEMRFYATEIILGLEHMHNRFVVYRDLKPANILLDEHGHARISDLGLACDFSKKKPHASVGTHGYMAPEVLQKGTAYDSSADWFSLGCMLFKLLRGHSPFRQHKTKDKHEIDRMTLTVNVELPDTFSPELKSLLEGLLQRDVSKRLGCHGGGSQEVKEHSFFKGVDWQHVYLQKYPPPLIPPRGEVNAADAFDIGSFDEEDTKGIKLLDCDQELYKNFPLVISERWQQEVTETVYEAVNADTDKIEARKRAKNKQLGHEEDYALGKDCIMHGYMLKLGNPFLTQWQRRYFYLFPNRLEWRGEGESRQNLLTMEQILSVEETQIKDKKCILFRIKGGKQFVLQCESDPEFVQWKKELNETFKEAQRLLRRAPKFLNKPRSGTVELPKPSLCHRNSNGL
The assay can be described thus: Selectivity interaction (SelectScreen profiling (Invitrogen)) EUB0000607a ADRBK2. To be noted: at 2 µM.

Assay [2] concerns the target T2, Serine/threonine-protein kinase ULK2 (Homo sapiens) (UniProt Q8IYT8).
T2 sequence (whole entry): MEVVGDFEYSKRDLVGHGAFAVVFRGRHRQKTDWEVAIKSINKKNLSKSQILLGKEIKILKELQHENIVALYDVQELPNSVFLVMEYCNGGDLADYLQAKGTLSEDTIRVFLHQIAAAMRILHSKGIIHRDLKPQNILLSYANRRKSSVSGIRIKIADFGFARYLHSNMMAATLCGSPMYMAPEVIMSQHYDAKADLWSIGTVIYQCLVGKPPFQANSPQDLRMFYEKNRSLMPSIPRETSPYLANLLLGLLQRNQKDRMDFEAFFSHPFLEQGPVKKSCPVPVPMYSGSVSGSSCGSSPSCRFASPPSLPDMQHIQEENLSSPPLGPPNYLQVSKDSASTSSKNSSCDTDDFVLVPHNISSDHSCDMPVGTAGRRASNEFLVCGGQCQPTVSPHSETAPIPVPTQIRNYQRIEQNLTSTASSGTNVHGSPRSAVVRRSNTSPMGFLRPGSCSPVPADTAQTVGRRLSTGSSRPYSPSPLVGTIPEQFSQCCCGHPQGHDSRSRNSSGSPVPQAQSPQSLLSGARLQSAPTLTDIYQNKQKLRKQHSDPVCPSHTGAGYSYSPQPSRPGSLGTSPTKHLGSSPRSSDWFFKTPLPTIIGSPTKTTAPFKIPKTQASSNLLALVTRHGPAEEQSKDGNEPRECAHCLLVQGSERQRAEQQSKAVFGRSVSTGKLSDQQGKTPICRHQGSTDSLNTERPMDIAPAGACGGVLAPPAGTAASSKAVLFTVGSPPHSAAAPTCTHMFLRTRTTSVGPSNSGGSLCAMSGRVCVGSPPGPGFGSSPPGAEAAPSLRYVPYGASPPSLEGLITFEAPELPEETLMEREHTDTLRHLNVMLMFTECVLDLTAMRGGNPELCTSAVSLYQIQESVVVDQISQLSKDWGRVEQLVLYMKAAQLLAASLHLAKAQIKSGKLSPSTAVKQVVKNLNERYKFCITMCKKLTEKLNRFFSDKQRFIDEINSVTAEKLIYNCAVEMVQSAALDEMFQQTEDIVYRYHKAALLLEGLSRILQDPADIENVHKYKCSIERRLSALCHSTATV
The assay can be described thus: Selectivity interaction (KinomeScan (DiscoverX)) EUB0001079a ULK2. The note with it: at 1 µM.

Assay [3] concerns the target T3, Dual specificity mitogen-activated protein kinase kinase 3 (Homo sapiens) (UniProt P46734).
T3 sequence (whole entry): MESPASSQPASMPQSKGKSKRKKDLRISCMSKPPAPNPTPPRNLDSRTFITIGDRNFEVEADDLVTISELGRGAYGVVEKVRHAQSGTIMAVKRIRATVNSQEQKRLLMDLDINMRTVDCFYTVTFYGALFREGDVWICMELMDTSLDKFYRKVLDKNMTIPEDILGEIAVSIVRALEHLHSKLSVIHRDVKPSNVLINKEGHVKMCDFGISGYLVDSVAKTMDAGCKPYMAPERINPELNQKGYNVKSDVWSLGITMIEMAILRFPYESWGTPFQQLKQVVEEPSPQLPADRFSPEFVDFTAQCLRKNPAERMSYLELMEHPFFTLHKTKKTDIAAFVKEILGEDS
The assay can be described thus: Selectivity interaction (ActivX KiNativ screen (kinase selectivity in THP-1 cell lysates)) EUB0000639a MAP2K3. In kind it is subcellular. The note with it: lysate, at 0.2 µM.

Assay [4] deals with T4, Dual specificity mitogen-activated protein kinase kinase 6 (Homo sapiens) (UniProt P52564).
T4 sequence (whole entry): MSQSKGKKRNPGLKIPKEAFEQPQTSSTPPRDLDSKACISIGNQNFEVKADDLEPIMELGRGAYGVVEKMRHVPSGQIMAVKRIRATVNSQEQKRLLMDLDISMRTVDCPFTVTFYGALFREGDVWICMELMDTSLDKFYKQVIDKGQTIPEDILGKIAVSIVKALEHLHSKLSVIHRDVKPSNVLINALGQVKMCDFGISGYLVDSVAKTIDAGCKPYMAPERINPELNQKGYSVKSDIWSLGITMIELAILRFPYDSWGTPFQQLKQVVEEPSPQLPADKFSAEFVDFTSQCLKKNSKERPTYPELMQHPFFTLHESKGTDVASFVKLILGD
Kind of assay: Selectivity interaction (ActivX KiNativ screen (kinase selectivity in THP-1 cell lysates)) EUB0000639a MAP2K6. Type of assay: subcellular. The note with it: lysate, at 5 µM.

Assay [5] deals with Serine/threonine-protein kinase MARK2 (Homo sapiens) (UniProt Q7KZI7). Kind of assay: Selectivity interaction (ProQinase) EUB0000171b MARK2.
In assay [6] the target is Glutamate receptor ionotropic, NMDA 1 (Homo sapiens) (UniProt Q05586). Kind of assay: Selectivity interaction (Eurofins CEREP Diversity Profile (receptors and ion channels)) EUB0000279b GRIN1. The note with it: at 10 µM.
Assay [7] concerns the target Mitogen-activated protein kinase 7 (Homo sapiens) (UniProt Q13164). The assay can be described thus: Selectivity interaction (KinomeScan (DiscoverX)) EUB0000595a MAPK7. The note with it: at 10 µM.

Serine/threonine-protein kinase MARK2 (Homo sapiens), sequence (Q7KZI7 whole entry): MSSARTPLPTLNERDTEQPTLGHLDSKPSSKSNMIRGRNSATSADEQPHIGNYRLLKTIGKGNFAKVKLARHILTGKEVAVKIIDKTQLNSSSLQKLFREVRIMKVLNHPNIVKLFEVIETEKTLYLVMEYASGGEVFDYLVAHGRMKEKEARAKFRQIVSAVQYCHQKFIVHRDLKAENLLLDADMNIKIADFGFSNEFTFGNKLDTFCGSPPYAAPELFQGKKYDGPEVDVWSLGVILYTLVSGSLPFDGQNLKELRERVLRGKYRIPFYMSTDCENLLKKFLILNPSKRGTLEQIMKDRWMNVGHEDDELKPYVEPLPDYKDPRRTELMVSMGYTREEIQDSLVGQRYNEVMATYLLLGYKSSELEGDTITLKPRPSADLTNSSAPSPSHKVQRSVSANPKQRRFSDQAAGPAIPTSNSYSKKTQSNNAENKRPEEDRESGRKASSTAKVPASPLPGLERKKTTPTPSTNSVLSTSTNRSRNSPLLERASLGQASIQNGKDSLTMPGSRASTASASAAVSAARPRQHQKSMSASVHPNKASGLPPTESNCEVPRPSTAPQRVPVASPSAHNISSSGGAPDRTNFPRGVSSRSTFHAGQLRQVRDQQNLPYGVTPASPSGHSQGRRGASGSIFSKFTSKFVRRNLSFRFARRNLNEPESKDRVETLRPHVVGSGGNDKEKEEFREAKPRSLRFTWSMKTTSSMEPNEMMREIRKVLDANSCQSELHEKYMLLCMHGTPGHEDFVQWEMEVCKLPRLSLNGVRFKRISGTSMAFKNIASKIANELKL
Mitogen-activated protein kinase 7 (Homo sapiens), sequence (Q13164 2-816 limits assumed): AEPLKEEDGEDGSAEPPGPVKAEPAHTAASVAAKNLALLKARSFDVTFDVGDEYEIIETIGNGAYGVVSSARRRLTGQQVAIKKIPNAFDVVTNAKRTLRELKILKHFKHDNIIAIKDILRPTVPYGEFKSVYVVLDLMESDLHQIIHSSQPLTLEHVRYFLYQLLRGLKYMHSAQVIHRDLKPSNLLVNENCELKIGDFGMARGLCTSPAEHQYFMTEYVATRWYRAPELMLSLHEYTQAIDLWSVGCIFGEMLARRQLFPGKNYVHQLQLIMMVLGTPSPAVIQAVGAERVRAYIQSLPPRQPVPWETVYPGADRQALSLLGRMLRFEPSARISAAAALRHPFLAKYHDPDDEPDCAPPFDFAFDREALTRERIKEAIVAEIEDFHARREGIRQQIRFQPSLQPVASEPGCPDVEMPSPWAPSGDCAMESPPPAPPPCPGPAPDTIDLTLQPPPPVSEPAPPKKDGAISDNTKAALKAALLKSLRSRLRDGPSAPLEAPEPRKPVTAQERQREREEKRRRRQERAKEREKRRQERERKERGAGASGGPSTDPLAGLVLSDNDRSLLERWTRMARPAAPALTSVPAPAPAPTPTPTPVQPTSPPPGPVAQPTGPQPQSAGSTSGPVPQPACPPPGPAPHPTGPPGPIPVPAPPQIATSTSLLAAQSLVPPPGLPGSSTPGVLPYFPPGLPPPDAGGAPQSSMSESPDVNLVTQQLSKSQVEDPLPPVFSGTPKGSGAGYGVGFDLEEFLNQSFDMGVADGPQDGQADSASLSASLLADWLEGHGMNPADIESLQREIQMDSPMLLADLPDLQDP

Take `CNC(=O)Nc1ccc(-c2nc(N3CC4CCC(C3)O4)c3cnn(C4CCC5(CC4)OCCO5)c3n2)cc1`: the % of inhibition in assay [1] is -3%.

`Nc1cnc(N2CCc3cc(S(=O)(=O)Nc4c(F)cc(Cl)cc4F)cc(N4CCCC4=O)c32)nc1` [TP-020n]: the % of control in assay [2] worked out at 100%. For `CC[C@@H]1[C@H](F)C(=O)N[C@@H]1COc1nccc2cc(C(N)=O)c(OC)cc12` [ZIMLOVISERTIB], the values for the % of inhibition in assay [3] and in assay [4] were -70.7% and 55.8%, respectively. `C=CC(=O)Nc1cccc(C(=O)Nc2ccc(Nc3cc(-c4[nH]c(SC)nc4C)ccn3)cc2)c1`: the % of control in assay [5] (at 1 µM) turned out to be 93%; in assay [5] (at 5 µM), 84%. In assay [6], `CC(=O)c1cc(-c2ccccc2OCC2CC2)c2ncccn12` yielded a % of control of 106%. Consider `COCC(=O)NC/C=C/c1ccc2ncnc(Nc3ccc(Oc4ccc(C)nc4)c(C)c3)c2c1` [CP-724714], for which the % of control in assay [7] was 100%.

The record behind these values is ChEMBL document CHEMBL5465560, “Selectivity Literature for EUbOPEN Chemogenomic Library” (2024).
